# Source: US20070203025A1, “Defoliant” (priority 2006, published 2007)
# Assays:
# [1] = test system: Cotton plants of the cultivar "Carmen"; assay: Regrowth of cotton plants, by weighing the newly formed leaf material; assay type: in vivo; conditions: dose 35 g of a.i./ha, 1 l/ha Actirob B added, weight of newly formed leaf material
# Procedure: (§1) A water application rate of 300 l/ha was initially charged. The components herbicide and adjuvant were then added with stirring at the application rates and in the manner stated in table 1, such that a homogeneous spray liquor was formed. Here, the active ingredients were employed as suspension concentrates. The adjuvant used was ®Actirob B (Novance).
# (§2) Cotton seeds of the cultivar “Carmen” were sown at a depth of 1 cm and cultivated in a climatized chamber (16 h of light, temperature during the day: 26° C., at night: 20° C.) until they had reached the 8-10 leaf stage.
# The plants were treated on a laboratory spray track with spray liquors of thidiazuron and thidiazuron with combination partners. The water application rate for the spray application was 300 l/ha. After the treatment, the plants were returned to the climatized chamber.
# 4 weeks after the application, the regrowth of the plants was assessed by weighing the newly formed leaf material.
# [2] = test system: Cotton plants of the cultivar "Carmen"; assay: Leaf drop effect (defoliation) on cotton plants after spray application; assay type: in vivo; conditions: dose 35 g of a.i./ha, 1 l/ha Actirob B added, scale 0-100%
# Procedure: as §1, §2
# The plants were treated on a laboratory spray track with spray liquors of thidiazuron and thidiazuron with combination partners. The water application rate for the spray application was 300 l/ha. […]
# 2 weeks after the application, the leaf drop effect was evaluated according to a scale from 0 to 100%: • 0% =no noticeable effect compared to untreated plants • 100% =all leaves have dropped.
# One week after the application, the leaf drop effect was evaluated according to a scale from 0 to 100%: • 0% =no noticeable effect compared to untreated plants • 100% =all leaves have dropped.
# One week after the application, the leaf drop effect was evaluated according to a scale from 0 to 100%: • 0%=no noticeable effect compared to untreated plants • 100%=all leaves have dropped.
smiles,measurement,setting,value
"O=C(Nc1ccccc1)Nc1cnns1 [TDZ, thidiazuron]",Regrowth [g] 4 weeks after application,[1]; Table 1,3.3 g
same,Regrowth [g] 4 weeks after application,[1]; Table 3,2.4 g
same,Leaf drop [%] 2 weeks after application,"[2]; Table 1, 100% = all leaves have dropped",35%
same,Leaf drop [%] 2 weeks after application,[2]; Table 3,91%
